Source: PMC11395333, “The Bifunctional Dimer Caffeine-Indan Attenuates α-Synuclein Misfolding, Neurodegeneration and Behavioral Deficits after Chronic Stimulation of Adenosine A1 Receptors” (International Journal of Molecular Sciences, 2024)

Assays:
α-Syn = test system: α-Syn; set-up: method as in PMID 35139916; details: co-administration with CPA; cited from earlier work
[1] = Ex vivo biodistribution in healthy CD-1 mice; details: for Biodistribution, blood / Biodistribution, bone / Biodistribution, brain / Biodistribution, heart / Biodistribution, kidney / Biodistribution, large intestine / Biodistribution, liver / Biodistribution, lung / Biodistribution, small intestine / Biodistribution, spleen: tail vein injection
Method: (§1) The liver, pancreas, and brain were collected, washed with saline, placed in water/acetonitrile, and homogenized using the Fisherbrand™ 150 Handheld Homogenizer (Thermo Fisher Scientific, Waltham, MA, USA). The samples were centrifuged at 14,000 relative centrifugal force (rcf) for 5 min (AccuSpin Micro 17, Thermo Fisher Scientific, Waltham, MA, USA). The supernatants were collected and filtered using 0.22 μm organic Millipore-Sigma filters (Oakville, ON, Canada). The clarified filtrate was injected into the HPLC and radioanalytes separated by a reverse phase column (5 μm C18, 9.4 × 250 mm reverse phase column, PN-990967-202, flow rate 5.00 mL/min) using the same gradient elution as described in Table 1. The elution of radioactive metabolites was detected using the radiation detector as described above. […] The mice were euthanized (anesthesia followed by cervical dislocation followed by cardiac puncture and blood draw) at 5, 10, 20, 40, and 60 min p.i., and different organs were harvested (blood, liver, small intestine, kidney, spleen, lung, heart, large intestine, bone, and brain), washed and placed in pre-weighed tubes. The radioactivity in each organ/tissue was measured using a calibrated automatic gamma counter (2480 Perkin Elmer, Waltham MA, USA) and the tissue uptake was expressed as a percentage of injected dose (ID) per gram (% ID/g). All radioactivity measurements were corrected for decay. Data are shown as average mean± SEM, calculated using replication for each sample.

[2] = In vivo metabolic stability, radio-HPLC of tissue extracts; set-up: species or system CD-1 mice; details: liver and pancreas extracts, 40 min p.i.
Method: as §1, with “The” for “The mice were euthanized (anesthesia followed by cervical dislocation followed by cardiac puncture and blood draw) at 5, 10, 20, 40, and 60 min p.i., and different organs were harvested (blood, liver, small intestine, kidney, spleen, lung, heart, large intestine, bone, and brain), washed and placed in pre-weighed tubes. The”

[3] = Micro-PET/CT dynamic imaging; assay type: in vivo, CD-1 mice
Method: The acquisition of dynamic PET data (10 × 10, 8 × 15, 6 × 20, 6 × 30, 4 × 60, 1 × 100, 4 × 100, 6 × 150, 4 × 300) was started immediately after radiotracer injection, followed by a 1 min CT scan. PET/CT images were registered and reconstructed automatically by the GNEXT system. PET images were reconstructed using a 3D-ordered Subset Expectation Maximization algorithm with 24 subsets and 3 iterations. CT images were reconstructed using a Modified Feldkamp algorithm. All data were analyzed using Vivoquant software (IviCRO) (InVicro, Needham, MA, USA). CT images were used to define anatomical regions of interest (ROIs) through PET/CT image co-registration. The quantification of activity concentration in the brain was performed by drawing ROIs and the mean and maximum standard uptake values (SUVs) were determined using the formula: SUV = [(MBq/mL) × (animal wt. (g))/injected dose (MBq)].

[4] = extrapolated from unbound CLint in mouse liver microsomes, well-stirred model; cited from earlier work
[5] = set-up: method as in PMID 34187286; details: cited from earlier work

NC1CCc2ccccc21 (stereo not drawn) [1-aminoindan]
CPA-induced α-Syn aggregation and neurodegeneration (α-Syn): prevented the CPA-induced α-Syn aggregation and neurodegeneration

CCCn1c(=O)c2[nH]c(C3CCCC3)nc2n(CCC)c1=O [DPCPX]
CPA-induced α-Syn aggregation and neurodegeneration (α-Syn): prevented the CPA-induced α-Syn aggregation and neurodegeneration

Cn1c(=O)c2c(nc(CCCCCCNC3CCc4ccccc43)n2CCC[18F])n(C)c1=O (stereo not drawn) [^18F–C8–6–I]
Defluorination in vivo (from bone uptake) ([1]; mouse, in vivo): little defluorination occurred in vivo | blood5min/blood20min ([1]; ratio of blood radioactivity): 1.1 | blood5min/blood60min ([1]; ratio of blood radioactivity): 1.9 | brain5min/brain20min ([1]; ratio of brain uptake): 1.7 | brain5min/brain60min ([1]; ratio of brain uptake): 3.4 | Biodistribution, blood ([1]; 5 min p.i.): 0.76 ± 0.040 %ID/g | Biodistribution, bone ([1]; 5 min p.i.): 1.00 ± 0.18 %ID/g | Biodistribution, brain ([1]; 5 min p.i.): 0.17 ± 0.014 %ID/g | Biodistribution, heart ([1]; 5 min p.i.): 2.34 ± 0.26 %ID/g | Biodistribution, kidney ([1]; 5 min p.i.): 16.26 ± 1.82 %ID/g | Biodistribution, large intestine ([1]; 5 min p.i.): 2.98 ± 0.94 %ID/g | Biodistribution, liver ([1]; 5 min p.i.): 5.12 ± 1.65 %ID/g | Biodistribution, lung ([1]; 5 min p.i.): 7.03 ± 1.24 %ID/g | Biodistribution, small intestine ([1]; 5 min p.i.): 8.56 ± 2.02 %ID/g | Biodistribution, spleen ([1]; 5 min p.i.): 6.54 ± 0.88 %ID/g | Biodistribution, blood ([1]; 10 min p.i.): 0.78 ± 0.14 %ID/g | Biodistribution, bone ([1]; 10 min p.i.): 1.24 ± 0.44 %ID/g | Biodistribution, brain ([1]; 10 min p.i.): 0.14 ± 0.027 %ID/g | Biodistribution, heart ([1]; 10 min p.i.): 1.77 ± 0.17 %ID/g | Biodistribution, kidney ([1]; 10 min p.i.): 11.86 ± 1.74 %ID/g | Biodistribution, large intestine ([1]; 10 min p.i.): 3.06 ± 0.73 %ID/g | Biodistribution, liver ([1]; 10 min p.i.): 6.91 ± 2.02 %ID/g | Biodistribution, lung ([1]; 10 min p.i.): 5.51 ± 0.44 %ID/g | Biodistribution, small intestine ([1]; 10 min p.i.): 11.18 ± 3.11 %ID/g | Biodistribution, spleen ([1]; 10 min p.i.): 5.49 ± 1.05 %ID/g | Biodistribution, blood ([1]; 20 min p.i.): 0.67 ± 0.19 %ID/g | Biodistribution, bone ([1]; 20 min p.i.): 1.18 ± 0.005 %ID/g | Biodistribution, brain ([1]; 20 min p.i.): 0.10 ± 0.013 %ID/g | Biodistribution, heart ([1]; 20 min p.i.): 1.14 ± 0.040 %ID/g | Biodistribution, kidney ([1]; 20 min p.i.): 11.02 ± 0.48 %ID/g | Biodistribution, large intestine ([1]; 20 min p.i.): 2.83 ± 0.068 %ID/g | Biodistribution, liver ([1]; 20 min p.i.): 6.64 ± 1.44 %ID/g | Biodistribution, lung ([1]; 20 min p.i.): 5.52 ± 0.72 %ID/g | Biodistribution, small intestine ([1]; 20 min p.i.): 13.02 ± 1.24 %ID/g | Biodistribution, spleen ([1]; 20 min p.i.): 5.71 ± 0.69 %ID/g | Biodistribution, blood ([1]; 40 min p.i.): 0.48 ± 0.029 %ID/g | Biodistribution, bone ([1]; 40 min p.i.): 1.04 ± 0.27 %ID/g | Biodistribution, brain ([1]; 40 min p.i.): 0.10 ± 0.011 %ID/g | Biodistribution, heart ([1]; 40 min p.i.): 1.01 ± 0.16 %ID/g | Biodistribution, kidney ([1]; 40 min p.i.): 8.65 ± 1.21 %ID/g | Biodistribution, large intestine ([1]; 40 min p.i.): 2.69 ± 0.26 %ID/g | Biodistribution, liver ([1]; 40 min p.i.): 4.76 ± 0.54 %ID/g | Biodistribution, lung ([1]; 40 min p.i.): 3.00 ± 1.40 %ID/g | Biodistribution, small intestine ([1]; 40 min p.i.): 9.35 ± 1.82 %ID/g | Biodistribution, spleen ([1]; 40 min p.i.): 5.80 ± 0.83 %ID/g | Biodistribution, blood ([1]; 60 min p.i.): 0.39 ± 0.11 %ID/g | Biodistribution, bone ([1]; 60 min p.i.): 1.20 ± 0.34 %ID/g | Biodistribution, brain ([1]; 60 min p.i.): 0.05 ± 0.005 %ID/g | Biodistribution, heart ([1]; 60 min p.i.): 0.49 ± 0.018 %ID/g | Biodistribution, kidney ([1]; 60 min p.i.): 4.27 ± 0.37 %ID/g | Biodistribution, large intestine ([1]; 60 min p.i.): 2.50 ± 0.93 %ID/g | Biodistribution, liver ([1]; 60 min p.i.): 5.74 ± 1.12 %ID/g | Biodistribution, lung ([1]; 60 min p.i.): 1.42 ± 0.22 %ID/g | Biodistribution, small intestine ([1]; 60 min p.i.): 12.33 ± 0.81 %ID/g | Biodistribution, spleen ([1]; 60 min p.i.): 3.79 ± 0.33 %ID/g | Parent compound share of the radioactivity signal [2]: ≥ 95% | Standardized uptake value in the whole brain ([3]; after 50 min): 0.21 SUV | Maximum standardized uptake value in the whole brain ([3]; dynamic PET, tail vein injection): 0.47 SUV

Cn1c(=O)c2c(nc(CCCCCCNC3CCc4ccccc43)n2CCCF)n(C)c1=O (stereo not drawn) [^19F–C8–6–I]
Predicted in vivo clearance in mouse plasma, CLp [4]: 36.0 mL/min/kg | Parent remaining in liver microsomes ([5]; 1 h incubation, human, mouse and rat liver microsomes): significant percentage of the parent ^19F–C8–6–I remained | Defluorination in liver microsomes ([5]; mouse, rat and human liver microsomes): No defluorination was observed
